Marks after values point to notes of the source that are not given here.
How the values were obtained:
human opioid δ receptor = target: T1, human opioid δ receptor (Homo sapiens, UniProt P41143); experiment: Opioid receptor function test (Lance Ultra cAMP Kit), δ receptor; type: cell-based; conditions: for EC50: CHO cells expressing human δ receptor, cAMP, in the presence of forskolin; for Emax: ratio to maximum reaction of control drug SNC80 taken as 100%
T1 construct: host or cells: CHO cells
Experimental: (§1) Opioid Receptor Function Test
(§2) The functional activities of the compounds provided by the present invention on the μ, δ, and κ opioid receptors were investigated.
(§3) The test was performed by using Lance Ultra cAMP Kit (PerkinElmer) according to a method predetermined for the kit. In the evaluation of the agonistic activity, CHO cells expressing each of the human opioid receptors (δ, μ, and κ, accession numbers and catalog numbers are mentioned below) and 10 μM of each test compound were reacted for 30 minutes in an assay buffer (1× HBSS, […], pH 7.4, […] (isobutylmethylxanthine), 7.5% BSA) in the presence of forskolin. Subsequently, the cAMP detection reagent included in the kit was added, and 1 hour afterward, time-resolved fluorescence measurement was performed by using the EnVision plate reader (PerkinElmer). The test compounds and the control drugs (δ: SNC80, μ: DAMGO, κ: U-69593) were evaluated in a concentration range of 10^−12 to 10^−5 M, a dose-response curve of each test compound was obtained from the fluorescence values at 665 nm, and EC50 value and the Emax value were calculated. The Emax value was calculated as a ratio of the maximum reaction of the test compound to the maximum reaction of each control drug, which is taken as 100%.
(§4) • δ: Catalog No. CT4607, Accession No. NM_000911.2 • μ: Catalog No. CT4605, Accession No. NM_000914 • κ: Catalog No. CT4606, Accession No. NM_000912 (ChanTest Corporation)

human opioid μ receptor = target: T2, human opioid μ receptor (Homo sapiens, UniProt P35372); experiment: Opioid receptor function test (Lance Ultra cAMP Kit), μ receptor; type: cell-based; conditions: for μ receptor reaction rate at the maximum concentration (reference value, marked *): maximum reaction not reached, maximum concentration 10 μM, DAMGO = 100%; for EC50: CHO cells expressing human μ receptor, cAMP, in the presence of forskolin, read-out: μ receptor EC50 value; for Emax: ratio to maximum reaction of control drug DAMGO taken as 100%
T2 construct: host or cells: CHO cells
Experimental: as §1, §2, §3, §4

human opioid κ receptor = target: T3, human opioid κ receptor (Homo sapiens, UniProt P41145); experiment: Opioid receptor function test (Lance Ultra cAMP Kit), κ receptor; type: cell-based; conditions: for EC50: CHO cells expressing human κ receptor, cAMP, in the presence of forskolin; for Emax: ratio to maximum reaction of control drug U-69593 taken as 100%
T3 construct: host or cells: CHO cells
Experimental: as §1, §2, §3, §4

C57BL/6N male mice = experiment: Mouse elevated plus maze test; type: in vivo; conditions: subcutaneous
Experimental: Mouse Elevated Plus Maze Test
For the test, 5 to 6 weeks old C57BL/6N male mice were used. On a plus maze apparatus consisting of a wall-less running route (open arm, width 6 cm, length 30 cm) and a running route with a wall (closed arm, width 6 cm, length 30 cm, height of wall 15 cm), and having a height of 40 cm, a mouse was put so as to be directed to the running route with a wall, and allowed to spontaneously enter into the plus maze. Each test substance was dissolved in saline or 0.005 N HCl in saline, and subcutaneously administered on the back 30 minutes before the start of the test. At the time of the start of the test, video recording with a video camera was started, the time at which the mouse entered into the plus maze is considered to be the start of the test, and exploratory behavior was recorded for 5 minutes. On the basis of the video image, staying times in the running routes were determined, and wall-less running route staying time ratio (%) was calculated.

Wistar male rats = experiment: Rat elevated plus maze test; type: in vivo; conditions: oral, 3 mg/kg, 2 hours before test (FIG. 6)
Experimental: Rat Elevated Plus Maze Test
Anxiolytic effects of the compounds provided by the present invention were investigated by the rat elevated plus maze test.
For the test, 7 to 9 weeks old Wistar male rats were used. […] Each test substance was dissolved in a 4.5% aqueous solution of cyclodextrin, and orally administered 2 hours before the start of the test. The test data were automatically analyzed by using video image action analysis software (Smart3.0, PanLab S.L., PanLab), and wall-less running route staying time ratio (%) was calculated.

hERG potassium channel = target: T4, hERG potassium channel (Homo sapiens, UniProt Q12809); experiment: hERG potassium channel inhibition test (automatic patch clamp); type: cell-based; conditions: pH 7.4, hERG-expressing CHO cells, tail current, read-out: hERG channel inhibitory action
T4 construct: host or cells: CHO cells
Experimental: hERG (Human Ether-A-Go-Go-Related Gene) Potassium Channel Inhibition Test
The test was performed with Port-a-Patch automatic patch clump apparatus (Nanion Technologies) using hERG channel-stably expressing CHO cells (purchased from Channelopathy Foundation). The membrane potential of the cells was maintained at −80 mV, then there were applied a depolarization pulse at +20 mV for 1.5 seconds, and a following test pulse at −50 mV for 1.5 seconds at a frequency of 1 time per 10 seconds, and the hERG current was confirmed as a tail current induced by the test pulse. The test compound was dissolved in an extracellular fluid (137 mM NaCl, 4 mM KCl, 1.8 mM CaCl2, 1 mM MgCl2, 10 mM D(+)-glucose, 10 mM HEPES, pH 7.4), and the solution was refluxed at room temperature for 5 minutes. The inhibition ratio was obtained from the ratio of the tail current value observed after the compound was applied based on the tail current value observed before the compound was applied, which was taken as 100%.

Metabolic stability test = type: in vitro ADME; conditions: liver microsomes; human hepatic microsomes, 0 to 60 minutes; read-out: metabolic clearance CLint
Experimental: Human hepatic microsomes and a test substance were reacted for a certain period of time (0 to 60 minutes). The test substance, which was not metabolized in the reaction sample, was measured, and remaining ratio was calculated. The test substance-remaining ratio at the time when the reaction time is 0 hour is taken as 100%. The remaining ratio after incubation was plotted against time as a log-linear plot to obtain a regression line (y=100 e^−kt, k=inclination of straight line: clearance rate constant), and metabolic clearance CLint (mL/min/kg) was calculated by using the following equation. CLint*=k(−min)×52.5(mg MS protein/g liver)×26(g liver/kg)/MS protein (mg MS protein/mL) • *: Davies, B. and Morris T., Physiological parameters in laboratory animals and humans, Pharm. Res., 10(7)1093-1095, 1993 (Test Results)

T2 sequence (P35372 whole entry): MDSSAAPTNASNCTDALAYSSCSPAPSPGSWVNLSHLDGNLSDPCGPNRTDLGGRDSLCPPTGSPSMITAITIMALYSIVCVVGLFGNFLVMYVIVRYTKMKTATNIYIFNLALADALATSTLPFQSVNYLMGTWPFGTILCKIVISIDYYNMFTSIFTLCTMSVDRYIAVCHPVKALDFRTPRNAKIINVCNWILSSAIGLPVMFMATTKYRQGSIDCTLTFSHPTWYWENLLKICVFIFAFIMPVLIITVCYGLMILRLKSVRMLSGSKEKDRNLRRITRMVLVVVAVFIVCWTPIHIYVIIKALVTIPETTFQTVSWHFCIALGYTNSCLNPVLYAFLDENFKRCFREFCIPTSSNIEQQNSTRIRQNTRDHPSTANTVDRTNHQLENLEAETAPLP
T3 sequence (P41145 whole entry): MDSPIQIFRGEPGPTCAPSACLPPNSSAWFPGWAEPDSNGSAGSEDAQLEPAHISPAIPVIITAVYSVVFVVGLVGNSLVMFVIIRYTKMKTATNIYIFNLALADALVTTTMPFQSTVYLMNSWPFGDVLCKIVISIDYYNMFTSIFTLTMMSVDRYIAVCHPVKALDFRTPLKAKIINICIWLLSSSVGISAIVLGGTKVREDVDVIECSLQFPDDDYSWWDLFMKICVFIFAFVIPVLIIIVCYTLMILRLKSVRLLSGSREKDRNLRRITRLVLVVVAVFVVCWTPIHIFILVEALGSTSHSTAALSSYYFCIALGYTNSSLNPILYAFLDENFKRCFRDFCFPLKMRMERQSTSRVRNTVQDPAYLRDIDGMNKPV
T1 sequence (P41143 whole entry): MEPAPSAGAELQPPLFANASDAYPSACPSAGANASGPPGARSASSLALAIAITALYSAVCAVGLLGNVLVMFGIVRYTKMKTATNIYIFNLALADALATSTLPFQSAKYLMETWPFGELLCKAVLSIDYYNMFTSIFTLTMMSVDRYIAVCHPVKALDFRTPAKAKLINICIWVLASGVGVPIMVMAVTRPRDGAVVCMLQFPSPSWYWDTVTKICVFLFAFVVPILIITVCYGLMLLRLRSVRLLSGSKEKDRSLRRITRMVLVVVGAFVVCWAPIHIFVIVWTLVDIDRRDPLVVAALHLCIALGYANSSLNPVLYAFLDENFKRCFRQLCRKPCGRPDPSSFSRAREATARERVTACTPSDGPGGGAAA
T4 sequence (Q12809 whole entry): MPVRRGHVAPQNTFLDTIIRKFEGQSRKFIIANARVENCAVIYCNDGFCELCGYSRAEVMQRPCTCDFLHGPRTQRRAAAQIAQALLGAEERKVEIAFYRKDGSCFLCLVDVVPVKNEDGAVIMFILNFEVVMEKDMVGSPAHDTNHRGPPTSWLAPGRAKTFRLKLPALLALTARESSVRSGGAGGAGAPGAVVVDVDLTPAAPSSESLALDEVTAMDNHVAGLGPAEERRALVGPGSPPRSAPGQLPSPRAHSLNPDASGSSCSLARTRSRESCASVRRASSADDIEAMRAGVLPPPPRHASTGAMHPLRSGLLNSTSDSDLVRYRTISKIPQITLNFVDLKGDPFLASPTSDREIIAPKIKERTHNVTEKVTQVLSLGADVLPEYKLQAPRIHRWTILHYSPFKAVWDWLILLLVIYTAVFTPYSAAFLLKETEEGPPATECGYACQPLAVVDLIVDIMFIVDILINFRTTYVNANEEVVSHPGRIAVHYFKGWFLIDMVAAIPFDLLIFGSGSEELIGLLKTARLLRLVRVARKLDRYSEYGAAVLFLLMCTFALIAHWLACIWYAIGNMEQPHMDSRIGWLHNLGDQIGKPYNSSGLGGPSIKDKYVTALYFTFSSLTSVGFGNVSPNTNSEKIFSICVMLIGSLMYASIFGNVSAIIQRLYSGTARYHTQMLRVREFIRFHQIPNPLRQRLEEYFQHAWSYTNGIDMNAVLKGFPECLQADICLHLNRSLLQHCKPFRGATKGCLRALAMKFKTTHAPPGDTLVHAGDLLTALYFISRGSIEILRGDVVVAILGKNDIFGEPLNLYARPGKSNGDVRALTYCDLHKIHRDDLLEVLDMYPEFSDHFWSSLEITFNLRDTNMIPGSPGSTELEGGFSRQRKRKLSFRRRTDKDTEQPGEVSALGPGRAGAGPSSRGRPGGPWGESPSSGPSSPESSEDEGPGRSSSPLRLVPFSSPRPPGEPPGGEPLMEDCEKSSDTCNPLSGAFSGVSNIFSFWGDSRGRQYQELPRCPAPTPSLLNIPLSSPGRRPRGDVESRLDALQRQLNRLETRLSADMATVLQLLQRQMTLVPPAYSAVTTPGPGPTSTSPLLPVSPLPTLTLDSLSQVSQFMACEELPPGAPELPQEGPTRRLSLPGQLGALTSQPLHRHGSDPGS

Q: Which results are given for `Cn1c(C(=O)N2C[C@H]3C[C@@]45CC[C@@H]2[C@@H]3[C@@]42CCN(CC3CC3)[C@@H]5Cc3ccc(O)cc32)cccc1=O` [Example 10, 6-((1S,3aR,5aS,6R,11bR,11cS)-14-(cyclopropylmethyl)-10-hydroxy-2,3,3a,4,5,6,7,11c-octahydro-1H-6,11b-(epiminoethano)-1,5a-methanonaphtho[1,2-e]indole-3-carbonyl)-1-methylpyridin-2(1H)-one]?
A: EC50 (human opioid δ receptor): < 3 nM; Emax (human opioid δ receptor): 74%; μ receptor reaction rate at the maximum concentration (reference value, marked *) (human opioid μ receptor): 6.0* %; κ receptor reaction rate at the maximum concentration (reference value, marked *) (human opioid κ receptor; maximum reaction not reached, maximum concentration 10 μM, U-69593 = 100%): −0.7* %; wall-less running route staying time ratio (C57BL/6N male mice; dose not stated (FIGS. 3 to 5)): tendency of increasing; wall-less running route staying time ratio (Wistar male rats): significantly increased; inhibition at 5 min, 10 µM (hERG potassium channel): < 50%; CLint scaled (Metabolic stability test): 13 mL/min/kg

Q: With `Cn1cc(C(=O)N2C[C@H]3C[C@@]45CC[C@@H]2[C@@H]3[C@@]42CCN(CC3CC3)[C@@H]5Cc3ccc(O)cc32)ccc1=O` [Example 9, 5-((1S,3aR,5aS,6R,11bR,11cS)-14-(cyclopropylmethyl)-10-hydroxy-2,3,3a,4,5,6,7,11c-octahydro-1H-6,11b-(epiminoethano)-1,5a-methanonaphtho[1,2-e]indole-3-carbonyl)-1-methylpyridin-2(1H)-one] as the compound, how does the EC50 (human opioid δ receptor) read?
A: < 3 nM

Q: And the Emax (human opioid δ receptor)?
A: 74%

Q: And the EC50 (human opioid μ receptor)?
A: < 1 nM

Q: What about the Emax (human opioid μ receptor) of the same compound?
A: 15%

Q: And the EC50 (human opioid κ receptor)?
A: < 1 nM

Q: And the Emax (human opioid κ receptor)?
A: 14%

Q: And the “wall-less running route staying time ratio” value (C57BL/6N male mice; dose not stated (FIGS. 3 to 5))?
A: tendency of increasing

Q: And the inhibition at 5 min, 10 µM (hERG potassium channel)?
A: < 50%

Q: Which EC50 (human opioid δ receptor) does the source give for `O=C(c1cccc[n+]1[O-])N1C[C@H]2C[C@@]34CC[C@@H]1[C@@H]2[C@@]31CCN(CC2CC2)[C@@H]4Cc2ccc(O)cc21` [Example 1, 2-((1S,3aR,5aS,6R,11bR,11cS)-14-(cyclopropylmethyl)-10-hydroxy-2,3,3a,4,5,6,7,11c-octahydro-1H-6,11b-(epiminoethano)-1,5a-methanonaphtho[1,2-e]indole-3-carbonyl)pyridine 1-oxide] here?
A: < 3 nM

Q: What about the Emax (human opioid δ receptor) of the same compound?
A: 88%

Q: What about the “μ receptor reaction rate at the maximum concentration (reference value, marked *)” value (human opioid μ receptor) of the same compound?
A: 8.3* %

Q: And the EC50 (human opioid κ receptor)?
A: > 1 nM

Q: What about the Emax (human opioid κ receptor) of the same compound?
A: 12%

Q: What about the “wall-less running route staying time ratio” value (C57BL/6N male mice; 3 mg/kg, 30 minutes before test (FIG. 1)) of the same compound?
A: significantly increased

Q: What about the inhibition at 5 min, 10 µM (hERG potassium channel) of the same compound?
A: < 50%

Q: What about the CLint scaled (Metabolic stability test) of the same compound?
A: 19 mL/min/kg

Q: Which EC50 (human opioid δ receptor) does the source give for `O=C(c1ccc(=O)[nH]n1)N1C[C@H]2C[C@@]34CC[C@@H]1[C@@H]2[C@@]31CCN(CC2CC2)[C@@H]4Cc2ccc(O)cc21` [Example 16, 6-((1S,3aR,5aS,6R,11bR,11cS)-14-(cyclopropylmethyl)-10-hydroxy-2,3,3a,4,5,6,7,11c-octahydro-1H-6,11b-(epiminoethano)-1,5a-methanonaphtho[1,2-e]indole-3-carbonyl)pyridazin-3(2H)-one] here?
A: < 3 nM

Q: And the Emax (human opioid δ receptor)?
A: 92%

Q: What about the EC50 (human opioid μ receptor) of the same compound?
A: > 1 nM

Q: And the Emax (human opioid μ receptor)?
A: 19%

Q: What about the EC50 (human opioid κ receptor) of the same compound?
A: < 1 nM

Q: And the Emax (human opioid κ receptor)?
A: 29%

Q: And the CLint scaled (Metabolic stability test)?
A: 18 mL/min/kg

Q: For `O=C(c1ccc[nH]c1=O)N1C[C@H]2C[C@@]34CC[C@@H]1[C@@H]2[C@@]31CCN(CC2CC2)[C@@H]4Cc2ccc(O)cc21` [Example 3, 3-((1S,3aR,5aS,6R,11bR,11cS)-14-(cyclopropylmethyl)-10-hydroxy-2,3,3a,4,5,6,7,11c-octahydro-1H-6,11b-(epiminoethano)-1,5a-methanonaphtho[1,2-e]indole-3-carbonyl)pyridin-2(1H)-one], which EC50 (human opioid δ receptor) is on record?
A: < 3 nM

Q: What about the Emax (human opioid δ receptor) of the same compound?
A: 98%

Q: What about the EC50 (human opioid μ receptor) of the same compound?
A: > 1 nM

Q: What about the Emax (human opioid μ receptor) of the same compound?
A: 20%

Q: And the EC50 (human opioid κ receptor)?
A: < 1 nM

Q: What about the Emax (human opioid κ receptor) of the same compound?
A: 15%

Q: And the “wall-less running route staying time ratio” value (C57BL/6N male mice; dose not stated (FIGS. 3 to 5))?
A: tendency of increasing

Q: What about the “wall-less running route staying time ratio” value (Wistar male rats) of the same compound?
A: significantly increased

Q: And the inhibition at 5 min, 10 µM (hERG potassium channel)?
A: < 50%

— US11633392B2 (priority 2016, dated 2023)
